Measurements reported in patent US8541576B2, “Substituted pyrazolo-quinazoline derivatives as kinase inhibitors” (Nerviano Medical Sciences SRL, priority 2010, dated 2013).

Key:
Full-length human PIM-1 = target: T1, Full-length human PIM-1 (Homo sapiens, UniProt P11309); assay: Biochemical assay for inhibitors of PIM-1 kinase activity (trans-phosphorylation, Dowex resin, 33P-ATP); details: ATP 200 μM, enzyme 1 nM, Aktide 25 μM
T1 construct: Full-length human PIM-1 was expressed and purified; made in house
Protocol: Biochemical assay for inhibitors of PIM-1 kinase activity
The inhibitory activity of putative kinase inhibitors and the potency of selected compounds were determined using a trans-phosphorylation assay.
Specific peptide or protein substrates are trans-phosphorylated by their specific ser-thr or tyr kinase in the presence of ATP traced with ^33P-γ-ATP, and in the presence of their own optimal buffer and cofactors.
At the end of the phosphorylation reaction, more than 98% unlabeled ATP and radioactive ATP is captured by an excess of the ion exchange Dowex® resin; the resin then settles down to the bottom of the reaction plate by gravity.
Supernatant is subsequently withdrawn and transferred into a counting plate, then evaluated by β-counting.
The buffer for PIM-1 assay was composed of HEPES 50 mM, at pH 7.5, with 10 mM MgCl2, 1 mM DTT, 3 μM NaVO3, and 0.2 mg/ml BSA
Full-length human PIM-1 was expressed and purified as described in Bullock A N, et al., J. Biol. Chem. 2005, 280, 41675-82.
1.7 μM PIM1 was incubated 1 hour RT at 28° C. in the presence of 125 μM ATP
ATP concentration: 200 μM
Enzyme concentration: 1 nM
Substrate concentration Aktide (Chemical Abstract Service Registry Number 324029-01-8): 25 μM
The test mix consisted of:
1) 3× Enzyme mix (done in Kinase Buffer 3×), 5 μL/well
2) 3× substrate and ATP mix (done in ddH2O), together with ^33P-γ-ATP, 5 μL/well
3) 3× test compounds (diluted into ddH2O—3% DMSO)-5 μL/well
For IC50 determination, test compounds are received as a 1 mM solution in 100% DMSO and distributed into 96-well plates: compounds are then plated into the first column of a new 96-well plate (A1 to G1), 100 μl/well.
An automated station (Biomek FX®, Beckman) is used for serial dilutions, producing 1:3 dilutions in 100% DMSO, from line A1 to A10, for all the compounds in the column. Moreover, 4-5 copies of daughter plates are prepared by reformatting 5 μL of this first set of 100% DMSO dilution plates into 384-deep well plates: one copy of these serial dilution plates with the test compounds is thawed on the day of study, reconstituted at the working concentration (3-fold the final concentration) with 162 μL/well of water and used for IC50 determination assays. In a standard experiment, the highest concentration (3×) of compounds is typically 30 μM, while the lowest one is typically 1.5 nM.
Each 384-well plate generates at least one curve of the standard inhibitor staurosporine and reference wells (total enzyme activity vs. no enzymatic activity) for evaluation of Z′ and signal to background (S/B) ratio.
384-well plates, V bottom (test plates) are prepared with 5 μl of compound diluted as previously described (3×) and then placed onto a PlateTrak® 12 robotized station (Perkin Elmer; the robot has one 384-tip pipetting head for assay start, plus one 96-tip head for dispensing resin) together with one reservoir for Enzyme mix (3×) and one for ATP mix (3×).
Data are analyzed by an internally customized version of the “Assay Explorer®” SW package, which provides sigmoidal fitting of the ten-dilution curves for IC50 determination in secondary assay/hit confirmation routines.

[1] = system: MV-4-11 (biphenotypic B myelomonocytic leukemia) cells; assay: In vitro cell proliferation assay (CellTiter-Glo); type: cell-based; details: Homo sapiens, MV4-11, antiproliferative activity, 72 hours
Protocol: In Vitro Cell Proliferation Assay:
MV-4-11 (biphenotypic B myelomonocytic leukemia) cells (1250 cells/well) were seeded in white 384 well-plates in complete medium (RPMI 1640 or EMEM plus 10% Fetal bovine serum) and treated with compounds dissolved in 0.1% DMSO, 24 h after seeding. The cells were incubated at 37° C. and 5% CO2 and after 72 hours the plates were processed using CellTiter-Glo® assay (Promega) following the manufacturer's instruction. CellTiter-Glo® is a homogenous method based on the quantification of the ATP present, an indicator of metabolically active cells. ATP is quantified using a system based on luciferase and D-luciferin resulting into light generation. The luminescent signal is proportional to the number of cells present in culture.
Briefly 25 μl/well reagent solution was added to each wells and after 5 minutes shacking microplates were red by Envision® (PerkinElmer) luminometer. The luminescent signal was proportional to the number of cells present in culture.
Inhibitory activity was evaluated comparing treated versus control data using Assay Explorer (MDL) program. IC50 was calculated using sigmoidal interpolation curve.

Full-length human PIM-2 = target: T2, Full-length human PIM-2 (Homo sapiens, UniProt Q9P1W9); assay: PIM-2 kinase inhibition assay: Dowex technique; type: biochemical; details: ATP 4 μM, enzyme 1.5 nM, Aktide 5 μM
T2 construct: Full-length human PIM-2 was expressed and purified; made in house
Protocol: Method for PIM-2 Kinase Inhibition Assay: Dowex Technique
The buffer for PIM-2 assay was composed of HEPES 50 mM, at pH 7.5, with 1 mM MgCl2, 1 mM DTT, 3 μM Na3VO4, and 0.2 mg/ml BSA
Full-length human PIM-2 was expressed and purified as described in Fedorov O, et al. (2007) PNAS 104, 51, 20523-28.
Assay Conditions (Final Concentrations):
Enzyme concentration=1.5 nM
Aktide substrate (Chemical Abstract Service Registry Number 324029-01-8)=5 μM
See above: same procedure as described for PIM-1.

T1 sequence (P11309 whole entry): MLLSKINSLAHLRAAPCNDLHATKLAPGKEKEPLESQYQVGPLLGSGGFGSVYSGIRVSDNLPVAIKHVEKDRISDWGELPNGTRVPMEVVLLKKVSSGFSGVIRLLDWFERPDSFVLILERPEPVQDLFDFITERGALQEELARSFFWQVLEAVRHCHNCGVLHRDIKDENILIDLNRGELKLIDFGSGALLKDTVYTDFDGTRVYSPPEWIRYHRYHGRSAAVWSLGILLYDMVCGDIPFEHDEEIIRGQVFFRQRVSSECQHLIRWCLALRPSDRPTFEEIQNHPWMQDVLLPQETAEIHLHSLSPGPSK
T2 sequence (Q9P1W9 whole entry): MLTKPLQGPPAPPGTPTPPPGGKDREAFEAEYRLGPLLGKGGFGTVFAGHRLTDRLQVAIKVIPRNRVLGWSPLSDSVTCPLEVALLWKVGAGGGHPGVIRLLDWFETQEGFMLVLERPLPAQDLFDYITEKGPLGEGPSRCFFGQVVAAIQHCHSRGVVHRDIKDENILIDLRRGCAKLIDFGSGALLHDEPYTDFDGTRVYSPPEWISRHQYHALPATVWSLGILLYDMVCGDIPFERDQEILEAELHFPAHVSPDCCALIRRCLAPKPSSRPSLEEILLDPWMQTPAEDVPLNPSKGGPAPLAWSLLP

| SMILES | IC50 (Full-length human PIM-1) [nM] | IC50 [1] [nM] | IC50 (Full-length human PIM-2) [nM] |
| --- | --- | --- | --- |
| CSc1ncc2ccc3c(C(N)=O)nn(CCO)c3c2n1 [Compound 1, 1-(2-hydroxyethyl)-8-(methylsulfanyl)-1H-pyrazolo[4,3-h]quinazoline-3-carboxamide] | 50 | 992 | 221 |
| CNC(=O)c1nn(C(C)(C)C)c2c1ccc1cnc(SC)nc12 [Compound 7, 1-tert-butyl-N-methyl-8-(methylsulfanyl)-1H-pyrazolo[4,3-h]quinazoline-3-carboxamide] | 41 | 1760 | 156 |
| CSc1ncc2ccc3c(C(N)=O)nn(CCN)c3c2n1 [Compound 15, 1-(2-aminoethyl)-8-(methylsulfanyl)-1H-pyrazolo[4,3-h]quinazoline-3-carboxamide] | 143 | 1430 | 282 |
| CSc1ncc2ccc3c(C(N)=O)nn(CC4CCNCC4)c3c2n1 [Compound 17, 8-(methylsulfanyl)-1-(piperidin-4-ylmethyl)-1H-pyrazolo[4,3-h]quinazoline-3-carboxamide] | 9 | 1540 | 160 |
| CN1CCN(c2ccc(Oc3ncc4c(n3)-c3c(c(C(N)=O)nn3C)CC4)cc2)CC1 [Compound 25, 1-methyl-8-[4-(4-methylpiperazin-1-yl)phenoxy]-4,5-dihydro-1H-pyrazolo[4,3-h]quinazoline-3-carboxamide] | 776 | > 10000 | > 10000 |
| CN1CCN(c2ccc(Oc3ncc4ccc5c(C(N)=O)nn(C)c5c4n3)cc2)CC1 [Compound 26, 1-methyl-8-[4-(4-methylpiperazin-1-yl)phenoxy]-1H-pyrazolo[4,3-h]quinazoline-3-carboxamide] | 33 | 520 | 861 |
| Cn1nc(C(N)=O)c2ccc3cnc(Oc4ccc(N5CCNCC5)cc4)nc3c21 [Compound 27, 1-methyl-8-[4-(piperazin-1-yl)phenoxy]-1H-pyrazolo[4,3-h]quinazoline-3-carboxamide] | 4 | 308 | 498 |
| CN1CCN(c2ccc(Oc3ncc4ccc5c(C(N)=O)nn(C)c5c4n3)c(Br)c2)CC1 [Compound 29, 8-[2-bromo-4-(4-methylpiperazin-1-yl)phenoxy]-1-methyl-1H-pyrazolo[4,3-h]quinazoline-3-carboxamide] | 21 | 758 | 2400 |
| CN1CCN(c2ccc(Oc3ncc4ccc5c(C(N)=O)nn(C)c5c4n3)c(F)c2)CC1 [Compound 36, 8-[2-fluoro-4-(4-methylpiperazin-1-yl)phenoxy]-1-methyl-1H-pyrazolo[4,3-h]quinazoline-3-carboxamide] | 116 | 940 | 694 |
| CC(=O)c1cc(N2CCN(C)CC2)ccc1Oc1ncc2ccc3c(C(N)=O)nn(C)c3c2n1 [Compound 37, 8-[2-acetyl-4-(4-methylpiperazin-1-yl)phenoxy]-1-methyl-1H-pyrazolo[4,3-h]quinazoline-3-carboxamide] | 4120 |  | > 1000 |
| NC(=O)c1nn(C2CCC(N)CC2)c2c1ccc1cnc(-c3ccccc3)nc12 (centres unmarked) [Compound 111, 1-(4-aminocyclohexyl)-8-phenyl-1H-pyrazolo[4,3-h]quinazoline-3-carboxamide] | 400 |  | 210 |
| Cn1nc(C(N)=O)c2c1-c1nc(N3CCCCC3)ncc1CC2 [Ref. Compound 1, 1-methyl-8-(piperidin-1-yl)-4,5-dihydro-1H-pyrazolo[4,3-h]quinazoline-3-carboxamide, reference compound] | > 10000 |  | > 10000 |
| CSc1ncc2c(n1)-c1c(c(C(N)=O)nn1C)CC2 [Ref. Compound 2, 1-methyl-8-(methylsulfanyl)-4,5-dihydro-1H-pyrazolo[4,3-h]quinazoline-3-carboxamide, reference compound] | 1010 |  | > 10000 |
